Results reported in the NIST ThermoML archive (doi:10.1016/j.jct.2017.08.004).

Key:
[1] = Molar enthalpy of transition or fusion; details: Crystal; DSC
[2] = for molar entropy: 101.33 kPa; for Normal melting temperature: DTA

OC[C@@H](O)[C@@H](O)[C@H](O)[C@H](O)CO [D-mannitol]
Details	Molar enthalpy of transition or fusion [kcal/mol]
[1]	13.3

[2]
Details	molar entropy [J/K/mol]
1 K, Crystal, relaxation calorimetry	0.000631
2 K, Crystal, relaxation calorimetry	0.002978
3 K, Crystal, relaxation calorimetry	0.008828
4 K, Crystal, relaxation calorimetry	0.02011
5 K, Crystal, relaxation calorimetry	0.03893
6 K, Crystal, relaxation calorimetry	0.06761
7 K, Crystal, relaxation calorimetry	0.1087
8 K, Crystal, relaxation calorimetry	0.165
9 K, Crystal, relaxation calorimetry	0.2395
10 K, Crystal, relaxation calorimetry	0.3351
15 K, Crystal, relaxation calorimetry	1.202
20 K, Crystal, relaxation calorimetry	2.796
25 K, Crystal, relaxation calorimetry	5.087
30 K, Crystal, relaxation calorimetry	7.955
35 K, Crystal, relaxation calorimetry	11.26
40 K, Crystal, relaxation calorimetry	14.89
45 K, Crystal, relaxation calorimetry	18.76
50 K, Crystal, relaxation calorimetry	22.8
55 K, Crystal, relaxation calorimetry	26.97
60 K, Crystal, relaxation calorimetry	31.23
65 K, Crystal, relaxation calorimetry	35.57
70 K, Crystal, relaxation calorimetry	39.94
75 K, Crystal, relaxation calorimetry	44.34
80 K, Crystal, relaxation calorimetry	48.76
85 K, Crystal, relaxation calorimetry	53.19
90 K, Crystal, relaxation calorimetry	57.61
95 K, Crystal, relaxation calorimetry	62.02
100 K, Crystal, relaxation calorimetry	66.42
110 K, Crystal, relaxation calorimetry	75.17
120 K, Crystal, relaxation calorimetry	83.84
130 K, Crystal, relaxation calorimetry	92.42
140 K, Crystal, relaxation calorimetry	100.91
150 K, Crystal, relaxation calorimetry	109.31
160 K, Crystal, relaxation calorimetry	117.62
170 K, Crystal, relaxation calorimetry	125.86
180 K, Crystal, relaxation calorimetry	134.02
190 K, Crystal, relaxation calorimetry	142.11
200 K, Crystal, relaxation calorimetry	150.14
210 K, Crystal, relaxation calorimetry	158.13
220 K, Crystal, relaxation calorimetry	166.06
230 K, Crystal, relaxation calorimetry	173.95
240 K, Crystal, relaxation calorimetry	181.8
250 K, Crystal, relaxation calorimetry	189.63
260 K, Crystal, relaxation calorimetry	197.43
270 K, Crystal, relaxation calorimetry	205.2
273.15 K, Crystal, relaxation calorimetry	207.65
280 K, Crystal, relaxation calorimetry	212.96
290 K, Crystal, relaxation calorimetry	220.71
298.15 K, Crystal, relaxation calorimetry	227.01
300 K, Crystal, relaxation calorimetry	228.44
305 K, Crystal, Small sample (50 mg) DSC	232.31
310 K, Crystal, Small sample (50 mg) DSC	236.19
315 K, Crystal, Small sample (50 mg) DSC	240.08
320 K, Crystal, Small sample (50 mg) DSC	243.99
325 K, Crystal, Small sample (50 mg) DSC	247.9
330 K, Crystal, Small sample (50 mg) DSC	251.82
335 K, Crystal, Small sample (50 mg) DSC	255.74
340 K, Crystal, Small sample (50 mg) DSC	259.67
345 K, Crystal, Small sample (50 mg) DSC	263.61
350 K, Crystal, Small sample (50 mg) DSC	267.55
355 K, Crystal, Small sample (50 mg) DSC	271.49
360 K, Crystal, Small sample (50 mg) DSC	275.43
365 K, Crystal, Small sample (50 mg) DSC	279.37
370 K, Crystal, Small sample (50 mg) DSC	283.31
375 K, Crystal, Small sample (50 mg) DSC	287.25
380 K, Crystal, Small sample (50 mg) DSC	291.19
385 K, Crystal, Small sample (50 mg) DSC	295.12
390 K, Crystal, Small sample (50 mg) DSC	299.04
395 K, Crystal, Small sample (50 mg) DSC	302.96
400 K, Crystal, Small sample (50 mg) DSC	306.87
405 K, Crystal, Small sample (50 mg) DSC	310.78
410 K, Crystal, Small sample (50 mg) DSC	314.68
415 K, Crystal, Small sample (50 mg) DSC	318.58
420 K, Crystal, Small sample (50 mg) DSC	322.47
425 K, Crystal, Small sample (50 mg) DSC	326.38
430 K, Crystal, Small sample (50 mg) DSC	330.31
435 K, Crystal, Small sample (50 mg) DSC	334.63
450 K, Liquid, Small sample (50 mg) DSC	463.49
455 K, Liquid, Small sample (50 mg) DSC	469.61
460 K, Liquid, Small sample (50 mg) DSC	475.21
465 K, Liquid, Small sample (50 mg) DSC	480.73
470 K, Liquid, Small sample (50 mg) DSC	486.2
475 K, Liquid, Small sample (50 mg) DSC	491.61
480 K, Liquid, Small sample (50 mg) DSC	496.96
485 K, Liquid, Small sample (50 mg) DSC	502.25
490 K, Liquid, Small sample (50 mg) DSC	507.49

Details	Normal melting temperature [°C]
[2], Crystal	167.47

OC[C@H](O)C(O)[C@@H](O)CO [L-(-)-arabitol]
Details	Molar enthalpy of transition or fusion [kcal/mol]
[1]	8.79

[2]
Details	molar entropy [J/K/mol]
1 K, Crystal, relaxation calorimetry	0.0005209
2 K, Crystal, relaxation calorimetry	0.002213
3 K, Crystal, relaxation calorimetry	0.006332
4 K, Crystal, relaxation calorimetry	0.0143
5 K, Crystal, relaxation calorimetry	0.0278
6 K, Crystal, relaxation calorimetry	0.04885
7 K, Crystal, relaxation calorimetry	0.07993
8 K, Crystal, relaxation calorimetry	0.1243
9 K, Crystal, relaxation calorimetry	0.1854
10 K, Crystal, relaxation calorimetry	0.2663
15 K, Crystal, relaxation calorimetry	1.038
20 K, Crystal, relaxation calorimetry	2.479
25 K, Crystal, relaxation calorimetry	4.532
30 K, Crystal, relaxation calorimetry	7.074
35 K, Crystal, relaxation calorimetry	9.99
40 K, Crystal, relaxation calorimetry	13.19
45 K, Crystal, relaxation calorimetry	16.61
50 K, Crystal, relaxation calorimetry	20.19
55 K, Crystal, relaxation calorimetry	23.88
60 K, Crystal, relaxation calorimetry	27.65
65 K, Crystal, relaxation calorimetry	31.48
70 K, Crystal, relaxation calorimetry	35.36
75 K, Crystal, relaxation calorimetry	39.27
80 K, Crystal, relaxation calorimetry	43.19
85 K, Crystal, relaxation calorimetry	47.12
90 K, Crystal, relaxation calorimetry	51.04
95 K, Crystal, relaxation calorimetry	54.97
100 K, Crystal, relaxation calorimetry	58.89
110 K, Crystal, relaxation calorimetry	66.69
120 K, Crystal, relaxation calorimetry	74.44
130 K, Crystal, relaxation calorimetry	82.11
140 K, Crystal, relaxation calorimetry	89.7
150 K, Crystal, relaxation calorimetry	97.21
160 K, Crystal, relaxation calorimetry	104.63
170 K, Crystal, relaxation calorimetry	111.97
180 K, Crystal, relaxation calorimetry	119.24
190 K, Crystal, relaxation calorimetry	126.44
200 K, Crystal, relaxation calorimetry	133.58
210 K, Crystal, relaxation calorimetry	140.66
220 K, Crystal, relaxation calorimetry	147.69
230 K, Crystal, relaxation calorimetry	154.69
240 K, Crystal, relaxation calorimetry	161.65
250 K, Crystal, relaxation calorimetry	168.59
260 K, Crystal, relaxation calorimetry	175.51
270 K, Crystal, relaxation calorimetry	182.43
273.15 K, Crystal, relaxation calorimetry	184.6
280 K, Crystal, relaxation calorimetry	189.34
290 K, Crystal, relaxation calorimetry	196.25
298.15 K, Crystal, relaxation calorimetry	201.89
300 K, Crystal, relaxation calorimetry	203.17
305 K, Crystal, Small sample (50 mg) DSC	206.64
310 K, Crystal, Small sample (50 mg) DSC	210.13
315 K, Crystal, Small sample (50 mg) DSC	213.64
320 K, Crystal, Small sample (50 mg) DSC	217.18
325 K, Crystal, Small sample (50 mg) DSC	220.73
330 K, Crystal, Small sample (50 mg) DSC	224.32
335 K, Crystal, Small sample (50 mg) DSC	227.93
340 K, Crystal, Small sample (50 mg) DSC	231.6
345 K, Crystal, Small sample (50 mg) DSC	235.34
350 K, Crystal, Small sample (50 mg) DSC	239.2
355 K, Crystal, Small sample (50 mg) DSC	243.24
360 K, Crystal, Small sample (50 mg) DSC	247.71
380 K, Liquid, Small sample (50 mg) DSC	355.56
385 K, Liquid, Small sample (50 mg) DSC	361.46
390 K, Liquid, Small sample (50 mg) DSC	367.15
395 K, Liquid, Small sample (50 mg) DSC	372.77
400 K, Liquid, Small sample (50 mg) DSC	378.34
405 K, Liquid, Small sample (50 mg) DSC	383.87
410 K, Liquid, Small sample (50 mg) DSC	389.35
415 K, Liquid, Small sample (50 mg) DSC	394.8

Details	Normal melting temperature [°C]
[2], Crystal	96.70
